Here are results for three compounds from ChEMBL document CHEMBL1275457, “Postantibiotic effects and bactericidal activities of levofloxacin and gatifloxacin at concentrations simulating those of topical ophthalmic administration against fluoroquinolone-resistant and fluoroquinolone-sensitive methicillin-resistant Staphylococcus aureus strains” (2008).

Converted amounts (≈) assume the structure as drawn. The source made the active and inactive calls. No cut-off for these calls is given here.

For assay [1], the system named is Staphylococcus aureus. The experiment in a line: Antimicrobial activity against high level levofloxacin and methicillin-resistant Staphylococcus aureus JCSC 6763 expressing gyrA Ser84Leu/Ser85Pro and grlA Ser80Phe/Glu84Lys mutants by broth microdilution method. It counts as functional. A general note: Dilution methods test growth across graded concentrations, often in twofold steps.

The test system of assay [2] is Staphylococcus aureus. The experiment in a line: Antimicrobial activity against high level levofloxacin and methicillin-resistant Staphylococcus aureus JCSC 6764 expressing gyrA Ser84Leu, gyrB Asp437Glu norA T389C and grlA Ser80Phe/Glu84Lys mutants by broth microdilution method. It counts as functional.
Assay [3] has as its system Staphylococcus aureus. The assay can be described thus: Antimicrobial activity against high level levofloxacin and methicillin-resistant Staphylococcus aureus JCSC 6765 expressing gyrA Ser84Leu, norA T389C and grlA Ser80Phe/Glu84Lys mutants by broth microdilution method. In kind it is functional.
For assay [4], the system named is Staphylococcus aureus. The experiment in a line: Antimicrobial activity against low level levofloxacin and methicillin-resistant Staphylococcus aureus JCSC 6766 expressing gyrA Glu84Lys and grlA Ser80Phe mutants by broth microdilution method. In kind it is functional.
Assay [5] deals with Staphylococcus aureus. The experiment in a line: Antimicrobial activity against low level levofloxacin and methicillin-resistant Staphylococcus aureus JCSC 6767 expressing gyrA Glu84Lys and grlA Ser80Phe mutants by broth microdilution method. It counts as functional.
For assay [6], the system named is Staphylococcus aureus. The experiment in a line: Antimicrobial activity against low level levofloxacin and methicillin-resistant Staphylococcus aureus JCSC 6768 expressing gyrA Glu84Lys and grlA Ser80Phe mutants by broth microdilution method. It counts as functional.
Assay [7] relates to Staphylococcus aureus. The assay can be described thus: Antimicrobial activity against levofloxacin-sensitive and methicillin-resistant Staphylococcus aureus JCSC 6769 by broth microdilution method. It counts as functional.
Assay [8] deals with Staphylococcus aureus. The assay can be described thus: Antimicrobial activity against levofloxacin-sensitive and methicillin-resistant Staphylococcus aureus JCSC 6770 by broth microdilution method. It counts as functional.
The test system of assay [9] is Staphylococcus aureus. The experiment in a line: Antimicrobial activity against levofloxacin-sensitive and methicillin-resistant Staphylococcus aureus JCSC 6822 harboring mutation in norA gene by broth microdilution method. In kind it is functional.
Assay [10] has as its system Staphylococcus aureus. The experiment in a line: Bactericidal activity against methicillin-resistant Staphylococcus aureus at 4 times MIC upto 60 mins by time-kill assay. It counts as functional, organism-based.
Assay [11] relates to Staphylococcus aureus. The experiment in a line: Bactericidal activity against methicillin-resistant Staphylococcus aureus at 8 times MIC upto 60 mins by time-kill assay. It counts as functional, organism-based.
Assay [12] has as its system Staphylococcus aureus. The assay can be described thus: Bactericidal activity against methicillin-resistant Staphylococcus aureus at 16 times MIC upto 60 mins by time-kill assay. In kind it is functional, organism-based.
Assay [13] concerns Staphylococcus aureus. The assay can be described thus: Bactericidal activity against low level levofloxacin and methicillin-resistant Staphylococcus aureus at 4 times MIC after 120 mins by time-kill assay. In kind it is functional, organism-based.
The test system of assay [14] is Staphylococcus aureus. The experiment in a line: Bactericidal activity against low level levofloxacin and methicillin-resistant Staphylococcus aureus at 8 times MIC after 120 mins by time-kill assay. It counts as functional, organism-based.
Assay [15] deals with Staphylococcus aureus. The experiment in a line: Bactericidal activity against low level levofloxacin and methicillin-resistant Staphylococcus aureus at 16 times MIC after 120 mins by time-kill assay. It counts as functional, organism-based.
The test system of assay [16] is Staphylococcus aureus. The experiment in a line: Bactericidal activity against low level levofloxacin and methicillin-resistant Staphylococcus aureus at 4 times MIC after 24 hrs by time-kill assay. In kind it is functional, organism-based.
Assay [17] has as its system Staphylococcus aureus. The assay can be described thus: Bactericidal activity against high level levofloxacin and methicillin-resistant Staphylococcus aureus at 4 times MIC after 24 hrs by time-kill assay. It counts as functional, organism-based.
The test system of assay [18] is Staphylococcus aureus. The experiment in a line: Bactericidal activity against levofloxacin-sensitive and methicillin-resistant Staphylococcus aureus at 4 times MIC after 24 hrs by time-kill assay. In kind it is functional, organism-based.
The subject of assay [19] is Staphylococcus aureus. The assay can be described thus: Bactericidal activity against low level levofloxacin and methicillin-resistant Staphylococcus aureus at 8 times MIC after 24 hrs by time-kill assay. It counts as functional, organism-based.
Assay [20] has as its system Staphylococcus aureus. The assay can be described thus: Bactericidal activity against high level levofloxacin and methicillin-resistant Staphylococcus aureus at 8 times MIC after 24 hrs by time-kill assay. It counts as functional, organism-based.
Assay [21] has as its system Staphylococcus aureus. The assay can be described thus: Bactericidal activity against levofloxacin-sensitive and methicillin-resistant Staphylococcus aureus at 8 times MIC after 24 hrs by time-kill assay. In kind it is functional, organism-based.
Assay [22] concerns Staphylococcus aureus. The assay can be described thus: Bactericidal activity against low level levofloxacin and methicillin-resistant Staphylococcus aureus at 16 times MIC after 24 hrs by time-kill assay. In kind it is functional, organism-based.
The subject of assay [23] is Staphylococcus aureus. The assay can be described thus: Bactericidal activity against high level levofloxacin and methicillin-resistant Staphylococcus aureus at 16 times MIC after 24 hrs by time-kill assay. It counts as functional, organism-based.
Assay [24] has as its system Staphylococcus aureus. The experiment in a line: Bactericidal activity against levofloxacin-sensitive and methicillin-resistant Staphylococcus aureus at 16 times MIC after 24 hrs by time-kill assay. In kind it is functional, organism-based.
Assay [25] has as its system Staphylococcus aureus. The assay can be described thus: Bactericidal activity against low level levofloxacin and methicillin-resistant Staphylococcus aureus at 2048 ug/ml after 24 hrs by time-kill assay. In kind it is functional, organism-based.
The subject of assay [26] is Staphylococcus aureus. The experiment in a line: Bactericidal activity against high level levofloxacin and methicillin-resistant Staphylococcus aureus at 2048 ug/ml after 24 hrs by time-kill assay. In kind it is functional, organism-based.
For assay [27], the system named is Staphylococcus aureus. The experiment in a line: Bactericidal activity against levofloxacin-sensitive and methicillin-resistant Staphylococcus aureus at 2048 ug/ml after 24 hrs by time-kill assay. It counts as functional, organism-based.

As to `COc1c(N2CCNC(C)C2)c(F)cc2c(=O)c(C(=O)O)cn(C3CC3)c12` (stereo not given) [GATIFLOXACIN], the MIC (usually the lowest concentration that inhibits growth of the organism) against Staphylococcus aureus [1] amounted to 128 µg/mL (≈ 341 µM); against Staphylococcus aureus [2], 32 µg/mL (≈ 85.2 µM); in the assay on Staphylococcus aureus [3] it was 16 µg/mL (≈ 42.6 µM); against Staphylococcus aureus [4] it was 2 µg/mL (≈ 5.33 µM); in the assay with Staphylococcus aureus [5], 2 µg/mL (≈ 5.33 µM); against Staphylococcus aureus [6] it was 2 µg/mL (≈ 5.33 µM). Besides, the MIC in the assay with Staphylococcus aureus [7], in the assay with Staphylococcus aureus [8] and with Staphylococcus aureus [9] was 0.125 µg/mL (≈ 0.333 µM) in each case. Also, the result with Staphylococcus aureus [10], with Staphylococcus aureus [11] and in the assay with Staphylococcus aureus [12] was inactive. Moreover, the result in the assay with Staphylococcus aureus [13], in the assay on Staphylococcus aureus [14], in the assay with Staphylococcus aureus [15], in the assay with Staphylococcus aureus [16], with Staphylococcus aureus [17] and in the assay with Staphylococcus aureus [18] was Active. For the same compound, the outcome in the assay with Staphylococcus aureus [19], in the assay on Staphylococcus aureus [20], in the assay with Staphylococcus aureus [21], with Staphylococcus aureus [22], in the assay on Staphylococcus aureus [23] and in the assay on Staphylococcus aureus [24] was Active. Also, the outcome with Staphylococcus aureus [25], in the assay on Staphylococcus aureus [26] and in the assay with Staphylococcus aureus [27] was Active.
As for `C[C@H]1COc2c(N3CCN(C)CC3)c(F)cc3c(=O)c(C(=O)O)cn1c23.C[C@H]1COc2c(N3CCN(C)CC3)c(F)cc3c(=O)c(C(=O)O)cn1c23.O` [LEVOFLOXACIN], the MIC in the assay with Staphylococcus aureus [1] worked out at 512 µg/mL; against Staphylococcus aureus [2] it was 256 µg/mL; in the assay with Staphylococcus aureus [3] it was 64 µg/mL; in the assay on Staphylococcus aureus [4], 8 µg/mL; against Staphylococcus aureus [5], 8 µg/mL; with Staphylococcus aureus [6], 4 µg/mL. For the same compound, the MIC with Staphylococcus aureus [7] came to 0.5 µg/mL; in the assay on Staphylococcus aureus [8], 0.25 µg/mL; against Staphylococcus aureus [9] it was 0.25 µg/mL. Also, the outcome in the assay on Staphylococcus aureus [10], in the assay with Staphylococcus aureus [11] and in the assay with Staphylococcus aureus [12] was inactive. Further, the result in the assay with Staphylococcus aureus [16], in the assay on Staphylococcus aureus [17], with Staphylococcus aureus [18], in the assay on Staphylococcus aureus [19], in the assay with Staphylococcus aureus [20] and with Staphylococcus aureus [21] was Active. In addition, the result in the assay on Staphylococcus aureus [22], in the assay on Staphylococcus aureus [23], with Staphylococcus aureus [24], with Staphylococcus aureus [25], with Staphylococcus aureus [26] and in the assay with Staphylococcus aureus [27] was Active.
Consider `Cc1onc(-c2ccccc2)c1C(=O)N[C@@H]1C(=O)N2[C@@H]1SC(C)(C)[C@@H]2C(=O)O` [OXACILLIN], for which the MIC is 512 µg/mL (≈ 1280 µM) in the assay on Staphylococcus aureus [1]; 512 µg/mL (≈ 1280 µM) in the assay with Staphylococcus aureus [2]; 256 µg/mL (≈ 638 µM) in the assay on Staphylococcus aureus [3]; 512 µg/mL (≈ 1280 µM) against Staphylococcus aureus [4]; 256 µg/mL (≈ 638 µM) with Staphylococcus aureus [5]; 256 µg/mL (≈ 638 µM) in the assay on Staphylococcus aureus [6]. For the same compound, the MIC turned out to be 512 µg/mL (≈ 1280 µM) with Staphylococcus aureus [7], 256 µg/mL (≈ 638 µM) in the assay on Staphylococcus aureus [8] and 128 µg/mL (≈ 319 µM) with Staphylococcus aureus [9].
